In PMC4912613, “A broad analysis of resistance development in the malaria parasite” (Nature Communications, 2016):

What was measured:
[1] = tested on: PfCRT-Q352R (parent Dd2); test: Cross-resistance EC50 assay, PfCRT-Q352R; assay type: cell-based; conditions: Plasmodium falciparum, DD2, 72 h, read-out: PfCRT:Q352R (Dd2 Parent) Average EC50
Excerpt: (§1) To evaluate potential overlapping activity against known antimalarial drug targets, we performed dose-response studies with each compound against our assembled set of drug-resistant lines and their corresponding parents, in an asexual blood stage proliferation assay (Table 1). Comparisons were made to the drug-sensitive strain 3D7 when a parent was unavailable (TM90C2A, W2 and Dd2). As laboratories conducted EC50 assays with different strains and protocols, all comparisons were made between assays from the same laboratory and under the same assay conditions. Compounds displaying >5-fold EC50 shifts relative to the parent or sensitive strain were flagged as having potentially non-novel targets. Average fold shifts per strain ranged from 0.82 to 2.34, with a median of 1.23 indicating there was not common resistance to any one resistant clone. No resistance patterns were observed when classifying the compounds based on chemical structure, but this was not surprising given the diversity of compounds chosen. On the other hand, given that these confirmed compounds were derived from larger unconfirmed hit lists to which some filtration criteria may have been applied (for example, elimination of obvious dihydrofolate reductase inhibitors[32]), some[10][11][12][13] pre-existing bias may exist in the set. […]
(§2) Alternatively, a SYBR Green-based proliferation approach was used for the 72-h assay, as previously described. Briefly, a culture of either synchronized or asynchronous parasitized RBCs (0.3% parasitemia and 4% haematocrit) in screening medium (identical to supplemented medium above except no serum was added) was exposed to serial drug dilutions. Plates were incubated at 37 °C and gassed with 93% N2, 4% CO2 and 3% O2 for 72 h. Following incubation, 10 × SYBR Green I (Invitrogen; supplied in 10,000 × concentration) in lysis buffer ([…], 5 mM EDTA, 0.16% Saponin wt per vol and 1.6% Triton X vol per vol) was added to the wells and the plates were incubated overnight at room temperature before plate reading. EC50 assays were repeated three times, taking the average EC50 value from each assay set, and removing any outliers using a single iteration of Grubbs' test, eliminating values with z-scores above the critical z-value (α=0.05). The raw EC50 values for synchronized parasites assayed in a 384-well format are listed in Supplementary Data 4. The raw EC50 values for asynchronous parasites assayed in a 96 or 1536-well format are listed in Supplementary Data 5.
(§3) EC50 values for each strain were compared with those of the corresponding parent strain to determine fold-shift changes and identify resistance. To minimize the cause variance between assays, all comparisons were conducted between strains assayed under identical conditions. A one-way ANOVA followed by a Dunnet's post-test was conducted in GraphPad Prism to identify significant changes between the parent and resistant strain.

[2] = tested on: P. falciparum 3D7, Dd2, Dd2Δexo; test: In vitro evolution of compound-resistant lines (selection); assay type: cell-based, Plasmodium falciparum; conditions: for # of Resistant Strains Generated: resistant cultures out of three independent cultures; for EC50 fold shifts observed: selected parasites vs selection parent
Excerpt: While we found an overall lack of pre-existing resistance, analysing the onset of resistance was critical, as compounds resulting in rapid resistance are not ideal for clinical development. We therefore sought to create drug-resistant parasites using a variety of different selection methods. We implemented either a high-dose method or a ramp-up/pulse method for our in vitro selections. Two of the 50 compounds—MMV028895 and MMV665824—were removed from the selection study during experimentation. […] Out of the remaining 48 compounds, resistant parasites were obtained for 23 (Supplementary Data 1). As each selection was performed in triplicate with three independent cultures, we succeeded in generating a total of 66 resistant cultures. Parasites resistant to MMV026596 were not obtained despite 100 days of selection, but the cultures acquired hypersensitivity to mefloquine with a 10-fold reduction in EC50 compared with its parental line, 3D7. For the remaining 24 compounds, acquisition of resistant parasites was unsuccessful despite numerous attempts over an extensive period of time.
Based on the compound speed of action and lab specialty, selections were conducted using a high-pressure intermittent selection method, a step-wise selection method, or a constant selection method. For high-pressure selections, ∼1–2 × 10^9 parasites were treated at a concentration of 3–10 × EC50 until parasites could not be seen by microscopy (4–10 days). Following treatment, compound pressure was removed and cultures were allowed to recover. Once healthy parasites were seen and parasitemia reached ∼2%, compound pressure was reinstated. For step-wise selections, ∼1 × 10^8 parasites were treated at a starting concentration resulting in a reduced growth rate of 50%. Cultures were examined daily by microscopy, increasing compound concentration in increments of 5–10% as needed to maintain a 50% reduced growth rate. Selections were carried out until cultures achieved a reproducible EC50 fold shift of >3 × . Finally, constant selections were conducted in a similar manner to the high-pressure intermittent method with the exception that compound pressure was never removed. Following successful selection, cultures were cloned out using a limiting dilution method as previously described. Selections were terminated after 200 days if resistance could not be obtained.

[3] = tested on: GNF449-R2 (PfATP4 I203L and P990R, parent Dd2); test: Cross-resistance EC50 assay, GNF449-R2; assay type: cell-based; conditions: Plasmodium falciparum, SYBR green 72 hour assay, asynchronized parasites, 96-well or 1536-well format
Excerpt: as §1, §2, §3

SMILES	EC50 [1] [nM]	Time Length to Obtain Mutants ([2]; in vitro selection)	# of Resistant Strains Generated [2]	EC50 fold shifts observed [2]	EC50 [3] [µM]	acquisition of resistant parasites ([2]; in vitro selection)
Cc1ccc(Oc2ncccc2C(=O)Cc2cccc3cccnc23)c(C)c1 [MMV020746]	142	SHORT (0-50 days)	3/3	6-19x	2.63	–
COc1cc(-c2nc(-c3ccccc3)c(-c3ccccc3)[nH]2)cc(OC)c1O [MMV020750]	725	LONG (> 125 days)	0/3	no shift	1.47	–
CCCCCCCN(Cc1ccc(OC(C)(C)C(=O)OCC)cc1)C(=O)Nc1ccc(Cl)cc1OCC [MMV021735]	259	LONG (> 125 days)	0/3	no shift	1.78	–
CN(C)Cc1ccc(-c2cc3c(-c4ccc(CN(C)C)cc4)ccnc3[nH]2)cc1.O=C(O)C(F)(F)F [MMV022224]	320	LONG (> 125 days)	0/3	no shift	0.518	–
Nc1ncc(-c2cn[nH]c2)cc1-c1nc2ccc(F)cc2[nH]1 [MMV023367]	421	LONG (> 125 days)	3/3	3x	2.66	–
CN(C)S(=O)(=O)c1cc(-c2ccc3nccc(-c4cccc(S(N)(=O)=O)c4)c3c2)cnc1N [MMV024038]	107	SHORT (0-50 days)	0/3	no shift	1	–
Cc1ccc(S(=O)(=O)n2cc(-c3ccnc(N)c3)c3cc(Br)cnc32)cc1 [MMV024114]	499	LONG (> 125 days)	3/3	2x	3.34	–
CNCc1ccc2nc(-c3coc(Cc4cc(Cl)ccc4OCC(C)C)n3)[nH]c2c1.Cl.Cl [MMV026596]	451	LONG (> 125 days)	0/3	no shift	0.307	not obtained
COc1cc(-c2nc(-c3ccccc3)c(-c3ccccc3)[nH]2)ccc1OCCN(C)C [MMV027496]	211	LONG (> 125 days)	0/3	no shift	2.33	–
Cc1nc2ccc3ccc(CNc4ccc(C(=O)CC(CCC(=O)O)C(=O)O)cc4)cc3c2c(=O)[nH]1.Cl (centres unmarked) [MMV027634]	38	SHORT (0-50 days)	3/3	>15x	0.204	–
CC(C)c1cccc(C(NC(=O)C2Cc3ccccc3CN2C(=O)c2cccc(N3CCOCC3)c2)C2CCCC2)c1 (centres unmarked) [MMV028038]	314	MODERATE (50-125 days)	3/3	5-30x	0.555	–
O=C(NCC(CCCN1CCC(c2c[nH]c3ccccc23)CC1)c1ccccc1)Nc1ccc(Cl)c(Cl)c1 (centres unmarked) [MMV029272]	267	LONG (> 125 days)	3/3	6-9x	0.373	–
CC(C)(C)OC(=O)N1CCN(c2ccccc2NC(=O)c2cccc(C(F)(F)F)c2Oc2ccc(F)cc2)CC1 [MMV030666]	315	LONG (> 125 days)	0/3	no shift	0.248	–
CC(NCc1ccccc1)c1cc(Cl)ccc1O (centres unmarked) [MMV665789]	571	MODERATE (50-125 days)	2/3	3-7x	0.201	–
FC(F)(F)c1cccc(Nc2nc3ccccc3nc2Nc2cccc(C(F)(F)F)c2)c1 [MMV665794]	116	SHORT (0-50 days)	0/3	no shift	0.37	–
O=C(Nc1ccc(Cl)c(Cl)c1)Nc1ccc(Cl)c(Cl)c1 [MMV665852]	905	LONG (> 125 days)	0/3	no shift	1.95	–
OC(CNC1CCCCC1)Cn1c2ccc(I)cc2c2cc(I)ccc21 (centres unmarked) [MMV665882]	47	LONG (> 125 days)	3/3	2-3x	0.028	–
O=C(Nc1ccccc1O)c1ccc(Oc2cccc(C(=O)Nc3ccccc3O)c2)cc1 [MMV665888]	683	LONG (> 125 days)	0/3	no shift	0.972	–
COc1ccc(C(=O)C2CC2c2ccc(Cl)cc2)cc1 (centres unmarked) [MMV665924]	1400	SHORT (0-50 days)	3/3	3-5x	1.29	–
CCC(C)NCC(O)(c1ccc(Cl)cc1)c1ccc(Cl)cc1 (centres unmarked) [MMV665928]	486	SHORT (0-50 days)	0/3	no shift	0.16	–
